Results reported in patent US7714106B2, “Neuropeptides and their use for pest control” (University of Florida Research Foundation, Inc., priority 1999, dated 2010).
No end group written: not given here.

How the values were obtained:
[1] = tested on: first instar Aedes aegypti larvae; test: Effect of NPF polypeptides on Aedes aegypti larvae (ingestion, mortality); format: in vivo; conditions: microtiter plate, peptide 2 mg/ml to 0.04 mg/ml with Brewer's yeast, mortality at 24 hour intervals for 3 to 7 days, read-out: LC50 (mM) ± SEM
From the text: NPF polypeptides sharing sequence homology with NPF I and NPF II of the Colorado potato beetle (Leptinotarsa decemlineata) (Spittaels, et al. Insect Biochem. Mol. Biol., 26 (4):375-382, 1996) have been identified in the American cockroach (Periplaneta americana) (Veenstra and Lambrou, Biochem. Biophys. Res. Commun., 213 (2):519-524, 1995), mosquito (Aedes aegypti) (Stanek et al., Display Presentation, Entomological Society of America Annual Meeting, Montreal, Canada, Dec. 3-6, 2000), and fruit fly (Drosophila melanogaster), and their pesticidal activity was confirmed. Synthesized polypeptides corresponding to the native polypeptides of Colorado potato beetle (SEQ ID NO. 1), mosquito (SEQ ID NOs. 5 and 7), American cockroach (SEQ ID NOs. 9 and 11), and fruit fly (SEQ ID NOs. 13 and 15) were provided to first instar Aedes aegypti larvae for ingestion. Non-amidated versions of SEQ ID NOs. 5, 7, 9, 11, 13, and 15 (SEQ ID NOs. 6, 8, 10, 12, 14, and 16, respectively), as well as other functional equivalents (SEQ ID NOs. 17-24), were also provided for ingestion.
First instar Aedes aegypti larvae were assayed in a microtiter plate in 188 μl solution containing 160 μl of water, 10 μl of 2% Brewer's yeast, and NPF polypeptides of the subject invention at concentrations of 2 mg/ml to 0.04 mg/ml (Table 2). Mortality was determined at 24 hour intervals for 3 to 7 days. Controls were run with yeast solution lacking the NPF polypeptide.

[2] = tested on: trypsin biosynthesis in the midgut of female Aedes aegypti; test: Trypsin biosynthesis in blood-fed female mosquitoes injected with peptide (whole mosquitos); format: in vivo; conditions: whole blood-fed females, injected 0.25 μl, 10^−6 M peptide, midguts assayed 30 hours later
From the text: To find out if NPF I and II affect trypsin biosynthesis in the midgut of female Aedes aegypti, […] were removed and assayed for trypsin biosynthesis (Borovsky el al., 1990 “Mosquito Oostatic Factor: A Novel Decapeptide Modulating Trypsin-Like Enzyme Biosynthesis in the Midgut” FASEB J. 4:3015-3020; Borovsky et al. 1993 “Mass Spectrometry and Characterization of Aedes aegypti Trypsin Modulating Oostatic Factor (TMOF) and its Analog” Insect Biochem. Molec. Biol. 23:703-712). Each experiment was repeated 3 times (5 females per group) and the results are expressed as % inhibition of trypsin biosynthesis±S.E.M. (FIG. 1).

Row | Substance | LC50 [1] [mM] | % inhibition of trypsin biosynthesis [2] [%]
1 | PIRSPSLRLRF-NH2 [SEQ ID NO. 13, Pro-Ile-Arg-Ser-Pro-Ser-Leu-Arg-Leu-Arg-Phe-amide] | 0.589 ± 0.04 | 
2 | AQRSPSLRLRF-NH2 [SEQ ID NO. 15, Ala-Gln-Arg-Ser-Pro-Ser-Leu-Arg-Leu-Arg-Phe-amide] | 1.03 ± 0.1 | 
3 | Ala-Pro-Ser-Leu-Arg-Leu-Arg-Phe-amide (APSLRLRF-NH2) [NPF II, amidated neuropeptide NPF II, native to the Colorado potato beetle] |  | 35
4 | RPPTRFRF-NH2 [SEQ ID NO. 5, Arg-Pro-Pro-Thr-Arg-Phe-Arg-Phe-amide] | 0.61 ± 0.018 | 
5 | APQLRLRF-NH2 [SEQ ID NO. 7, Ala-Pro-Gln-Leu-Arg-Leu-Arg-Phe-amide] | 0.8 ± 0.06 | 
6 | PSLRLRF-NH2 [SEQ ID NO. 19, Pro-Ser-Leu-Arg-Leu-Arg-Phe-amide] | > 2.25 | 
7 | LRLRF-NH2 [SEQ ID NO. 21, Leu-Arg-Leu-Arg-Phe-amide] | > 2.8 | 
8 | ADRSPSLRLRF-NH2 [SEQ ID NO. 11, Ala-Asp-Arg-Ser-Pro-Ser-Leu-Arg-Leu-Arg-Phe-amide] | 0.65 ± 0.03 | 
9 | RSPSLRLRF-NH2 [SEQ ID NO. 17, Arg-Ser-Pro-Ser-Leu-Arg-Leu-Arg-Phe-amide] | 0.82 ± 0.07 | 
10 | ARGPQLRLRF-NH2 [SEQ ID NO. 1, Ala-Arg-Gly-Pro-Gln-Leu-Arg-Leu-Arg-Phe-amide] | 0.65 ± 0.04 | 
11 | ANRSPSLRLRF-NH2 [SEQ ID NO. 9, Ala-Asn-Arg-Ser-Pro-Ser-Leu-Arg-Leu-Arg-Phe-amide] | 0.135 ± 0.06 | 
